In US6452067B1, “Methods to assay for post-transcriptional suppression of gene expression” (DNA Plant Technology Corporation, priority 1997, dated 2002):

Assays:
Format in all cases: cell-based
[1] = tested on: control tomato (line 91103, nontransformed control) leaf explants; assay: GUS assay of SSR pPO7110 in precultured leaf explants, control tomato
Description: (§1) Two 4 mm discs were cut from each leaf and placed into a solution of Agrobacteria harboring either the suppression-sensitive GUS reporter construct pPO7110 or a control, nonsuppression-sensitive GUS construct, such as pPO7113, that lacks LE-ACS-2 sequences but is identical in every other respect. The Agrobacteria were previously grown in minimal medium containing sucrose and tetracycline at 1 mg/l to an apparent optical density of about 0.2 at 550 nm. Cultures at densities ranging from 0.1-0.4 were used, but the final density was always adjusted to 0.2 at 550 nm using growth medium. Discs were incubated with the Agrobacteria for 0.5-1.5 minutes, then removed and placed on sterile filter paper that was placed on top of tomato cocultivation medium (MS salts with IAA @ 0.05 mg/l, zeatin @ 1 mg/l and 100 μM acetosyringone and 1% gelrite).
(§2) The plates were incubated at 28° C. in the dark for 2.5 days whereupon the discs were removed and stained for GUS activity using 5-bromo-4-chloro-3-indolyl […] (X-Gluc). The discs were vacuum infiltrated for 2 minutes with the substrate solution containing 100 mM potassium phosphate pH 7.0, 10 mM EDTA, 2 mM potassium ferricyanide, 2 mM potassium ferrocyanide, 500 mg/1 X-Gluc, and 0.1% Triton X-100. Incubation was continued overnight (about 14-16 hr) at 37° C. and the plates were visually inspected for the presence of the insoluble blue precipitate a product of the GUS enzyme acting on the X-Gluc substrate. Tissues derived from nontransformed plants or transformed plants not displaying sense suppression will show the presence of a blue precipitate indicative of GUS activity while tissue derived from plants in the suppressed state will show no or comparatively little blue precipitate.
(§3) Strawberry plants which were continuously cultured in axenic conditions in vitro are used as a source of leaf explants. No ethanol dip or other form of surface sterilization was done on the strawberry leaves. […] This preculture step was carried out under lights at 28° C. for 4 days.
(§4) Three different concentrations of acetyosyringone were used in the preculture medium, 100 μM, 250 μM and 1000 μM.

[2] = tested on: 1345 tomato (an LE-ACS-2 suppressant) leaf explants; assay: GUS assay of SSR pPO7110 in precultured leaf explants, 1345 tomato
Description: as §1, §2, §3, §4

[3] = tested on: strawberry leaf explants; assay: GUS assay in precultured leaf explants, strawberry
Description: as §1, §2, §3, §4

[4] = 1 mg/l hormone in preculture/cocultivation medium, 0-10 scale
[5] = vac 100AS (100 μM acetosyringone in preculture medium)
[6] = vac 250AS (250 μM acetosyringone)
[7] = vac 1000AS (1000 μM acetosyringone)

SMILES | GUS Assay Results, visual rating of GUS staining (mean in parentheses) [1, 4] | GUS Assay Results, visual rating of GUS staining (mean in parentheses) [2, 4] | GUS Assay Results, visual rating of GUS staining (mean in parentheses) [3, 4] | GUS Assay Results, visual rating of GUS staining (mean in parentheses) [1, 5] | GUS Assay Results, visual rating of GUS staining (mean in parentheses) [1, 6] | GUS Assay Results, visual rating of GUS staining (mean in parentheses) [1, 7] | GUS Assay Results, visual rating of GUS staining (mean in parentheses) [2, 5] | GUS Assay Results, visual rating of GUS staining (mean in parentheses) [2, 6] | GUS Assay Results, visual rating of GUS staining (mean in parentheses) [2, 7] | GUS Assay Results, visual rating of GUS staining (mean in parentheses) [3, 5] | GUS Assay Results, visual rating of GUS staining (mean in parentheses) [3, 6] | GUS Assay Results, visual rating of GUS staining (mean in parentheses) [3, 7] | GUS Assay Results, visual rating of GUS staining (mean in parentheses) ([1]; 3 mg/l NAA) | GUS Assay Results, visual rating of GUS staining (mean in parentheses) ([2]; 3 mg/l NAA) | GUS Assay Results, visual rating of GUS staining (mean in parentheses) ([3]; 3 mg/l NAA)
O=C(O)COc1ccc(Cl)cc1Cl [2,4-D] | 3,4,7,8 (5.5) | 2,2,3 (2.3) | 0,0,0,0 (0) | – | – | – | – | – | – | – | – | – | – | – | –
COc1cc(C(C)=O)cc(OC)c1O [AS, acetosyringone] | – | – | – | 0,0,0,0 (0) | 0,0,0,0 (0) | 0,0,1,2 (0.8) | 0,0,0,0 (0) | 0,0,0,0 (0) | 0,0,0,0 (0) | 0,0,0,0 (0) | 0,0,0,0 (0) | 0,0,0,0 (0) | – | – | –
O=C(O)Cc1c[nH]c2ccccc12 [IAA] | 5,8,9,9 (7.8) | 0,4,4,6 (4.7) | 0,0,0,0 (0) | – | – | – | – | – | – | – | – | – | – | – | –
O=C(O)Cc1cccc2ccccc12 [NAA] | 0,1,3,3 (1.8) | 0,0,0,1 (0.3) | 0,0,0,0 (0) | – | – | – | – | – | – | – | – | – | 3,6,6,6 (5.25) | 0,1,2,4 (1.8) | 0,0,0,1 (0.3)
